Results reported in PubChem BioAssay (NCI).
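48-hour exposure; five concentrations; linearly interpolated endpoints. TGI: concentration producing complete growth inhibition.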

Tests used:
Experiment in all cases: NCI-60 cell line screen, 48 h
[1] = test system: DU-145 prostate
[2] = test system: 786-0 renal
[3] = test system: ACHN renal
[4] = test system: HOP-62 NSCLC
[5] = test system: OVCAR-5 ovarian
[6] = test system: SK-MEL-2 melanoma
[7] = test system: OVCAR-8 ovarian
[8] = test system: M14 melanoma
[9] = test system: LOX IMVI melanoma
[10] = test system: OVCAR-3 ovarian

Row | Compound | TGI [1] [µM] | TGI [2] [µM] | TGI [3] [µM] | TGI [4] [µM] | TGI [5] [µM] | TGI [6] [µM] | TGI [7] [µM] | TGI [8] [µM] | TGI [9] [µM] | TGI [10] [µM]
1 | c1ccc2c(c1)c1c(n2CCOCCN2CCCC2)CCCC1 | 87.2 | 29.6 | 42.1 | 28.9 | 35.3 | 30.7 | 57.6 | 29.5 | 33.9 | > 100
2 | Clc1ccc(C2=NN=C3C(c4ccccc4)=Nc4ccccc4N3C2)cc1 | > 41.9 | > 100 | > 100 | > 100 | > 30.6 | > 100 | > 100 | > 25.8 | > 100 | > 20.1
3 | c1cc2c(cc1NC1=NCCO1)OCO2 | > 100 | > 100 | > 100 | > 100 | > 100 | > 100 | > 100 | > 100 | > 100 | > 100
4 | CC(C)(C)OC(=O)NC1CC2(C=C(Br)C(=O)C(Br)=C2)OC1=O (stereo not given) | 26.4 | 7.5 | 10.8 | 36.8 | 35.1 | 32 | 21.4 | 20.2 | 33.4 | 32.5
5 | CCN1CCC(O)(c2ccc(Oc3ccc(F)cc3)cc2)C(C(=O)c2ccc(Oc3ccc(F)cc3)cc2)C1 (stereo not given) | 24.7 | 26.4 | 26.8 | 30.1 | 28.5 | 31.6 | 30.7 | 30.9 | 25.9 | 28.6
6 | CN(C)c1ccc(/C=C2\N=C(NNc3ccccc3)NC2=O)cc1 | > 100 | 50.2 | 61.9 | > 100 | > 100 | 44 | > 100 | > 100 | 92.4 | 35
7 | CN1C/C(=C\c2cccs2)C(O)/C(=C/c2cccs2)C1 (stereo not given) | > 100 | > 100 | > 100 | > 100 | > 100 | > 100 | > 100 | > 100 | > 100 | > 100
8 | COc1ccc(-n2[nH]nc(C(N)=O)c2=O)cc1 | > 100 | > 100 | > 100 | > 100 | > 100 | > 100 | > 100 | > 100 | > 100 | 13.8
9 | C=C(C(=O)O)[C@@H]1C[C@@H]2O[C@H]1[C@@H](O)[C@@H](C)CCCC(C)=CCC[C@@]2(C)O | > 100 | > 100 | > 100 | > 100 | > 100 | > 100 | > 100 | > 100 | > 100 | > 100
10 | Cc1ccccc1OC(C)C(=O)NN1C(=O)CSC1c1ccc(Cl)cc1 (stereo not given) | > 100 | 34.8 | > 68.9 | 51.2 | > 100 | > 100 | > 100 | > 100 | > 58.8 | > 93.6
11 | O=S(=O)(Nc1nc2ccccc2nc1Nc1ccc2ccccc2c1)c1ccccc1 | > 100 | > 100 | > 100 | 30.8 | 81.2 | 14 | > 100 | > 57.2 | 48.8 | 8.96
12 | Cc1nc(C)c(N2CCN(S(=O)(=O)N(Cc3ccccc3)Cc3ccccc3)CC2)c(=O)[nH]1 | > 100 | 23.5 | > 73 | 37.9 | > 100 | > 100 | 54.1 | > 100 | > 100 | > 100
13 | CS(=O)(=O)OCCN(CCOS(C)(=O)=O)c1ccc(C=Nc2cccc(Cl)c2)cc1 | > 100 | > 100 | 0.651 | > 100 | 17.7 | 66.5 | > 100 | 55.5 | 15.2 | 51.8
14 | CC1(C)OC2[C@@H](CO[C@@]3([C@@H](O)CCO)OC(C)(C)O[C@@H]23)O1 (stereo not given in full) | > 100 | > 100 | > 100 | > 100 | > 100 | > 100 | > 100 | > 100 | > 100 | > 100
15 | O=C1CC(c2ccccc2)C2(C(=O)NC(=S)NC2=O)C(c2ccccc2)C1 (stereo not given) | > 75 | > 75 | > 75 | > 75 | > 75 | > 75 | > 75 | > 75 | > 75 | > 75
16 | CCOC(=O)c1c(N=P(c2ccccc2)(c2ccccc2)c2ccccc2)nnc(-c2ccccc2)c1-c1ccccc1 | > 100 | > 100 | > 100 | > 100 | > 100 | > 100 | > 100 | > 100 | > 100 | > 100
